Measured values: patent US8686150B2 (Sanofi, priority 2011, dated 2014)

Each molecule was assayed against T1, human full-length recombinant PKC βII (Homo sapiens, UniProt P05771) (assay: Determination of PKC βII inhibition (Caliper mobility-shift kinase assay, Fluorescein-RFARKGSLRQKNV peptide substrate)). Conditions: example compounds at a final concentration of 1.14 μM (±0.15 μM).
T1 construct: Active human full-length recombinant PKC βII; purchased Invitrogen GmbH, Darmstadt, Germany
Assay type: biochemical
Procedure, shortened: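 Compounds were tested at 1.14 μM final. Enzyme was activated by PS, DAG and CaCl2 in Hepes pH 7.4 with MgCl2, with substrate 3 μM and ATP 120 μM as pre-mix concentrations. After 60 min at 32 °C and an EDTA stop, Caliper separation gave fractional turnover, which was normalised to no-compound and no-enzyme controls.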

T1 sequence (P05771 1-673 isoform P05771-2): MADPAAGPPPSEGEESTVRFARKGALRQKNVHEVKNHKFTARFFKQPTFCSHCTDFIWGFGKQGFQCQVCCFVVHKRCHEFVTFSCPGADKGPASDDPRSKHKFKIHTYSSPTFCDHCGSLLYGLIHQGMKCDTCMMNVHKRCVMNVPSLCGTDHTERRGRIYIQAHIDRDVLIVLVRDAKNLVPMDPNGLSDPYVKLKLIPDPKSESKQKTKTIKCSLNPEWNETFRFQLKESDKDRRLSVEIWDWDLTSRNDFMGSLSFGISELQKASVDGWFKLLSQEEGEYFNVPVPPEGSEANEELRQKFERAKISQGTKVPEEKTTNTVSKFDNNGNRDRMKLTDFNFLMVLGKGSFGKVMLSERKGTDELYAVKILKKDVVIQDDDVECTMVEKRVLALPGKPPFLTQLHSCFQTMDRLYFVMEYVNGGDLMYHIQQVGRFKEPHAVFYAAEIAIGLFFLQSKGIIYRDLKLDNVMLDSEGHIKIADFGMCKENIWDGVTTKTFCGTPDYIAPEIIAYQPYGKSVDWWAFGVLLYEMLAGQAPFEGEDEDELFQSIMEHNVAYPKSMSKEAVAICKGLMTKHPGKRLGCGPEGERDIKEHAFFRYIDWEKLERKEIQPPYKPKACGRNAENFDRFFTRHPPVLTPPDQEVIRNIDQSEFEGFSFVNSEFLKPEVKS

Row | SMILES | inhibition at 1.14 µM [%]
1 | Cc1cc(O)ccc1-c1cc(C(=O)NCC2(N)CCCCCC2)c2c(C)n[nH]c2n1 [Example 148, 6-(4-Hydroxy-2-methyl-phenyl)-3-methyl-1H-pyrazolo[3,4-b]pyridine-4-carboxylic acid (1-amino-cycloheptylmethyl)-amide] | 85
2 | CCc1n[nH]c2nc(-c3ccc(O)cc3)cc(C(=O)N3CCC4(CC3)CNC4)c12 [Example 171, (2,7-Diaza-spiro[3.5]non-7-yl)-[3-ethyl-6-(4-hydroxy-phenyl)-1H-pyrazolo[3,4-b]pyridin-4-yl]-methanone] | 77
3 | Cc1n[nH]c2nc(-c3ccc(O)c(F)c3)cc(C(=O)NCC3CCCCN3)c12 (centres unmarked) [Example 367, 6-(3-Fluoro-4-hydroxy-phenyl)-3-methyl-1H-pyrazolo[3,4-b]pyridine-4-carboxylic acid (piperidin-2-ylmethyl)-amide] | 36
4 | Cc1cc(O)ccc1-c1cc(C(=O)N2CCNC[C@@H]2C)c2c(C)n[nH]c2n1 [Example 17, [6-(4-Hydroxy-2-methyl-phenyl)-3-methyl-1H-pyrazolo[3,4-b]pyridin-4-yl]-((S)-2-methyl-piperazin-1-yl)-methanone] | 95
5 | O=C(c1cc(-c2ccc(O)cc2)nc2[nH]nc(C3CC3)c12)N1CCNC[C@H]1c1ccccc1 [Example 158, [3-Cyclopropyl-6-(4-hydroxy-phenyl)-1H-pyrazolo[3,4-b]pyridin-4-yl]-((R)-2-phenyl-piperazin-1-yl)-methanone] | 78
6 | CCC1(C)CNC(C)(C)CN1C(=O)c1cc(-c2ccc(O)cc2F)nc2[nH]nc(C)c12 (centres unmarked) [Example 449, (2-Ethyl-2,5,5-trimethyl-piperazin-1-yl)-[6-(2-fluoro-4-hydroxy-phenyl)-3-methyl-1H-pyrazolo[3,4-b]pyridin-4-yl]-methanone] | 99
7 | CCCC[C@H]1CN(C(=O)c2cc(-c3ccc(O)c(F)c3)nc3[nH]nc(C)c23)CCN1 [Example 294, ((S)-3-Butyl-piperazin-1-yl)-[6-(3-fluoro-4-hydroxy-phenyl)-3-methyl-1H-pyrazolo[3,4-b]pyridin-4-yl]-methanone] | 85
8 | Cc1n[nH]c2nc(-c3ccc(O)cc3F)cc(C(=O)N3CCN[C@H](C)C3)c12 [Example 426, [6-(2-Fluoro-4-hydroxy-phenyl)-3-methyl-1H-pyrazolo[3,4-b]pyridin-4-yl]-((R)-3-methyl-piperazin-1-yl)-methanone] | 87
9 | O=C(c1cc(-c2ccc(O)cc2)nc2[nH]nc(C(F)(F)F)c12)N1CCC2(CCNCC2)CC1 [Example 411, (3,9-Diaza-spiro[5.5]undec-3-yl)-[6-(4-hydroxy-phenyl)-3-trifluoromethyl-1H-pyrazolo[3,4-b]pyridin-4-yl]-methanone] | 24
10 | Cc1cc(O)ccc1-c1cc(C(=O)N2CCNCC2c2ccccc2Cl)c2c(C)n[nH]c2n1 (centres unmarked) [Example 153, [2-(2-Chloro-phenyl)-piperazin-1-yl]-[6-(4-hydroxy-2-methyl-phenyl)-3-methyl-1H-pyrazolo[3,4-b]pyridin-4-yl]-methanone] | 89
11 | Cc1n[nH]c2nc(-c3ccc(O)c(F)c3)cc(C(=O)NCC(C)(c3ccccn3)N3CCCC3)c12 (centres unmarked) [Example 370, 6-(3-Fluoro-4-hydroxy-phenyl)-3-methyl-1H-pyrazolo[3,4-b]pyridine-4-carboxylic acid (2-pyridin-2-yl-2-pyrrolidin-1-yl-propyl)-amide] | 48
12 | CCN1CC2CC1CN2C(=O)c1cc(-c2ccc(O)c(F)c2)nc2[nH]nc(C)c12 (centres unmarked) [Example 358, (5-Ethyl-2,5-diaza-bicyclo[2.2.1]hept-2-yl)-[6-(3-fluoro-4-hydroxy-phenyl)-3-methyl-1H-pyrazolo[3,4-b]pyridin-4-yl]-methanone] | 28
13 | Cc1n[nH]c2nc(-c3ccc(O)c(F)c3)cc(C(=O)N3CC[C@H](N)C3)c12 [Example 292, ((S)-3-Amino-pyrrolidin-1-yl)-[6-(3-fluoro-4-hydroxy-phenyl)-3-methyl-1H-pyrazolo[3,4-b]pyridin-4-yl]-methanone] | 77
14 | CCc1n[nH]c2nc(-c3ccc(O)cc3)cc(C(=O)N3CCCN(CC)CC3)c12 [Example 187, (4-Ethyl-[1,4]diazepan-1-yl)-[3-ethyl-6-(4-hydroxy-phenyl)-1H-pyrazolo[3,4-b]pyridin-4-yl]-methanone] | 58
15 | Cc1n[nH]c2nc(-c3ccc(O)c(F)c3)cc(C(=O)N3CCCC4(CNCCO4)C3)c12 (centres unmarked) [Example 345, [6-(3-Fluoro-4-hydroxy-phenyl)-3-methyl-1H-pyrazolo[3,4-b]pyridin-4-yl]-(1-oxa-4,8-diaza-spiro[5.5]undec-8-yl)-methanone] | 58
16 | Cc1n[nH]c2nc(-c3ccc(O)c(F)c3)cc(C(=O)N3CCCC4CNCCC43)c12 (centres unmarked) [Example 324, [6-(3-Fluoro-4-hydroxy-phenyl)-3-methyl-1H-pyrazolo[3,4-b]pyridin-4-yl]-(octahydro-[1,6]naphthyridin-1-yl)-methanone] | 69
17 | Cc1cc(O)ccc1-c1cc(C(=O)N2CCNCC2c2ccc(F)cc2)c2c(C)n[nH]c2n1 (centres unmarked) [Example 138, [2-(4-Fluoro-phenyl)-piperazin-1-yl]-[6-(4-hydroxy-2-methyl-phenyl)-3-methyl-1H-pyrazolo[3,4-b]pyridin-4-yl]-methanone] | 98
18 | Cc1n[nH]c2nc(-c3ccc(O)cc3F)cc(C(=O)N3[C@@H]4CC[C@H]3CNC4)c12 [Example 417, 3,8-Diaza-bicyclo[3.2.1]oct-8-yl-[6-(2-fluoro-4-hydroxy-phenyl)-3-methyl-1H-pyrazolo[3,4-b]pyridin-4-yl]-methanone] | 78
19 | Cc1n[nH]c2nc(-c3ccc(O)c(F)c3)cc(C(=O)N3CCC4(CC3)CNC4)c12 [Example 329, (2,7-Diaza-spiro[3.5]non-7-yl)-[6-(3-fluoro-4-hydroxy-phenyl)-3-methyl-1H-pyrazolo[3,4-b]pyridin-4-yl]-methanone] | 72

Second part, the molecule after the results:

Row | inhibition at 1.14 µM [%] | SMILES
20 | 93 | Cc1n[nH]c2nc(-c3ccc(O)cc3)cc(C(=O)N3CCNCC3c3cc(F)cc(F)c3)c12 (centres unmarked) [Example 87, [2-(3,5-Difluoro-phenyl)-piperazin-1-yl]-[6-(4-hydroxy-phenyl)-3-methyl-1H-pyrazolo[3,4-b]pyridin-4-yl]-methanone]
21 | 94 | CNC1CCN(C(=O)c2cc(-c3ccc(O)cc3)nc3[nH]nc(C)c23)C1 (centres unmarked) [Example 240, [6-(4-Hydroxy-phenyl)-3-methyl-1H-pyrazolo[3,4-b]pyridin-4-yl]-(3-methylamino-pyrrolidin-1-yl)-methanone]
22 | 70 | CCCC1(N)CCCN(C(=O)c2cc(-c3ccc(O)cc3)nc3[nH]nc(C)c23)C1 (centres unmarked) [Example 48, (3-Amino-3-propyl-piperidin-1-yl)-[6-(4-hydroxy-phenyl)-3-methyl-1H-pyrazolo[3,4-b]pyridin-4-yl]-methanone]
23 | 78 | Cc1n[nH]c2nc(-c3ccc(O)cc3)cc(C(=O)NC3CC4(CC(N)C4)C3)c12 (centres unmarked) [Example 191, 6-(4-Hydroxy-phenyl)-3-methyl-1H-pyrazolo[3,4-b]pyridine-4-carboxylic acid (6-amino-spiro[3.3]hept-2-yl)-amide]
24 | 72 | Cc1n[nH]c2nc(-c3ccc(O)cc3)cc(C(=O)N[C@H]3C[C@H](N)C3)c12 [Example 252, 6-(4-Hydroxy-phenyl)-3-methyl-1H-pyrazolo[3,4-b]pyridine-4-carboxylic acid (trans-3-amino-cyclobutyl)-amide]
25 | 76 | CNCCCNC(=O)c1cc(-c2ccc(O)cc2)nc2[nH]nc(C)c12 [Example 244, 6-(4-Hydroxy-phenyl)-3-methyl-1H-pyrazolo[3,4-b]pyridine-4-carboxylic acid (3-methylamino-propyl)-amide]
26 | 39 | Cc1n[nH]c2nc(-c3ccc(O)cc3)cc(C(=O)N3CC(=O)N4CCCCC4C3)c12 (centres unmarked) [Example 266, 2-[6-(4-Hydroxy-phenyl)-3-methyl-1H-pyrazolo[3,4-b]pyridine-4-carbonyl]-octahydro-pyrido[1,2-a]pyrazin-4-one]
27 | 95 | COC(=O)CC1CNCCN1C(=O)c1cc(-c2ccc(O)cc2)nc2[nH]nc(C)c12 (centres unmarked) [Example 197, {1-[6-(4-Hydroxy-phenyl)-3-methyl-1H-pyrazolo[3,4-b]pyridine-4-carbonyl]-piperazin-2-yl}-acetic acid methyl ester]
28 | 83 | Cc1n[nH]c2nc(-c3ccc(O)c(F)c3)cc(C(=O)N[C@@H]3CCCNC3)c12 [Example 305, 6-(3-Fluoro-4-hydroxy-phenyl)-3-methyl-1H-pyrazolo[3,4-b]pyridine-4-carboxylic acid (R)-piperidin-3-ylamide]
29 | 53 | Cc1n[nH]c2nc(-c3ccc(O)cc3)cc(C(=O)N[C@H]3C[C@@H]3N)c12 (racemic) [Example 251, 6-(4-Hydroxy-phenyl)-3-methyl-1H-pyrazolo[3,4-b]pyridine-4-carboxylic acid (trans-2-amino-cyclopropyl)-amide]
30 | 85 | Cc1n[nH]c2nc(-c3ccc(O)cc3)cc(C(=O)N3C[C@H]4CNC[C@H]4C3)c12 [Example 250, (3aR,6aS)-Hexahydro-pyrrolo[3,4-c]pyrrol-2-yl-[6-(4-hydroxy-phenyl)-3-methyl-1H-pyrazolo[3,4-b]pyridin-4-yl]-methanone]
31 | 98 | CCCC1(NC(=O)c2cc(-c3ccc(O)cc3)nc3[nH]nc(C)c23)CCNCC1 [Example 118, 6-(4-Hydroxy-phenyl)-3-methyl-1H-pyrazolo[3,4-b]pyridine-4-carboxylic acid (4-propyl-piperidin-4-yl)-amide]
32 | 93 | Cc1n[nH]c2nc(-c3ccc(O)cc3)cc(C(=O)N3CCNCC3c3ccccc3Cl)c12 (centres unmarked) [Example 102, [2-(2-Chloro-phenyl)-piperazin-1-yl]-[6-(4-hydroxy-phenyl)-3-methyl-1H-pyrazolo[3,4-b]pyridin-4-yl]-methanone]
